Measurements reported in publication PMC11678221, “Design, Synthesis and Molecular Modeling of Pyrazolo[1,5-a]pyrimidine Derivatives as Dual Inhibitors of CDK2 and TRKA Kinases with Antiproliferative Activity” (Pharmaceuticals, 2024).

Legend:
CDK2/CyclinA2 = biological target: T1, CDK2/CyclinA2 (Homo sapiens, UniProt P24941); assay: CDK2 inhibition assay (BPS Bioscience kit, Kinase-Glo Max luminescence); assay type: biochemical; conditions: four concentrations 0.01, 0.1, 1, 10 µM, triplicate, mean ± SD, read-out: Enzyme Inhibition IC50 CDK-2
T1 construct: purchased BPS Bioscience, San Diego, CA, USA 79599

TrkA = biological target: T2, TrkA (Homo sapiens, UniProt P04629); assay: TRKA inhibition assay (BPS Bioscience kit, Kinase-Glo Max luminescence); assay type: biochemical; conditions: four concentrations 0.01, 0.1, 1, 10 µM, triplicate, mean ± SD, read-out: Enzyme Inhibition IC50 TRK-A
T2 construct: purchased BPS Bioscience, San Diego, CA, USA 79548

RFX 393 [1] = assay: NCI 60 cell line single-dose growth inhibition (SRB); assay type: cell-based, human; conditions: 10 µM; kidney carcinoma cell line RFX 393
Procedure: (§1) The developed pyrazolopyrimidines 6a–t, 11a–g, and 12 were evaluated by the National Cancer Institute (NCI) Developmental Therapeutic Program https://dtp.cancer.gov/ (accessed on 17 July 2022) for their prospective efficacy of growth-inhibitory activity verses 60 different carcinoma cell lines of NCI. Human carcinoma cell lines originated across nine distinct cancer types: central nervous system, cancer of the blood, colorectal, breast, ovary, kidney, melanoma, prostatic, and lung carcinomas. All compounds have been assessed with a concentration of 10 µM versus the collection of 60 diverse cancer cell lines. Outcomes are expressed as percentages of growth inhibition (GI %) for the evaluated compounds versus the complete set of cell lines (Supplementary Materials).
(§2) Performed by US National Cancer Institute according to previously reported standard procedure as follows: Cells were plated into 96-well microtiter plates with each well equipped with 100 µL of culture medium at densities between 5000 and 40,000 cells per well, based on the specific cell line’s doubling time. After seeding, incubation was carried out at 37 °C in 5% carbon dioxide, 95% […] environment with 100% relative humidity for one day to permit the cells to attach before proceeding to treatment with the tested compounds. To determine the cell count at drug exposure time of (Tz), two plates were per fixed cell line using trichloroacetic acid after the 24 h incubation period.
(§3) The studied compounds were initially dispersed in dimethyl sulfoxide at a concentration 400 times exceeding the intended final concentration and subsequently frozen until required. Before the application, an aliquot of the stock solution was warmed to room temperature and diluted in a complete medium containing 50 µg per mL of gentamicin to attain twice the intended concentration. Subsequently, 100 µL of the diluted compound was introduced to every well holding 100 µL of the medium to achieve the intended concentration. After the compound was added, the plates were incubated under the same conditions for a further 48 h at 37 °C.
(§4) For the adherent cells, the experiment was concluded via the introduction of 50 µL of cold 50% (w/v) trichloroacetic acid into each well, resulting in a last TCA concentration for 10%. Then, the cell plates were incubated at 4 °C for about one hour to fix the cells.
(§5) After the removal of the supernatant, the plates were washed with tap water five times before being dried using air. For the suspension cells, a similar process was followed, but 50 µL of 80% TCA was used, yielding a final TCA concentration of 16% for the cells fixed in the well’s bottom.
(§6) Following cell fixation, 100 µL of the 0.4% (wight/volume) solution of sulforhodamine B with acetic acid at a concentration of 1% was introduced to all individual wells, and then incubated at ambient temperature for 10 min. The plates were washed five times with 1% acetic acid to eliminate any residual dye, followed by air-drying. Next, […] Tris base was added to disperse the bonded dye, and, using an automatic microplate reader, the absorbance was determined at 515 nm.
(§7) The percentage of growth inhibition measurement depended on the absorbance values at the baseline time point […], as well as during the control growth phase (C) and the test growth phase (Ti). When Ti was greater than or equal to Tz, the calculation formula used [(Ti − Tz)/(C − Tz)] × 100. If Ti was less than Tz, the formula used was (Ti − Tz)/Tz × 100.

NCI-H460 = assay: as above; assay type: cell-based, human; conditions: 10 µM; lung carcinoma NCI-H460
Procedure: as §1, §2, §3, §4, §5, §6, §7

HOP-92 = assay: as above; assay type: cell-based, human; conditions: 10 µM; lung carcinoma HOP-92
Procedure: as §1, §2, §3, §4, §5, §6, §7

ACHN = assay: as above; assay type: cell-based, human; conditions: 10 µM; renal cancer cell line ACHN
Procedure: as §1, §2, §3, §4, §5, §6, §7

HOP-62 = assay: as above; assay type: cell-based, human; conditions: 10 µM; lung carcinoma HOP-62
Procedure: as §1, §2, §3, §4, §5, §6, §7

SNB-75 = assay: as above; assay type: cell-based, human; conditions: 10 µM; central nervous system SNB-75 carcinoma cell line
Procedure: as §1, §2, §3, §4, §5, §6, §7

56 cell lines = assay: NCI 60 cell line single-dose growth inhibition, mean over the panel; assay type: cell-based; conditions: Homo sapiens, mean across 56 cell lines, read-out: mean growth inhibition (GI%)
Procedure: as §1, with “Materials). […]” for “Materials).”
Following cell fixation, 100 µL of the 0.4% (wight/volume) solution of sulforhodamine B with acetic acid at a concentration of 1% was introduced to all individual wells, and then incubated at ambient temperature for 10 min. […] Next, 10 µM Tris base was added to disperse the bonded dye, and, using an automatic microplate reader, the absorbance was determined at 515 nm.
The percentage of growth inhibition measurement depended on the absorbance values at the baseline time point (T0), as well as during the control growth phase (C) and the test growth phase (Ti). […]

Trk = conditions: known inhibitor, in Figure 2; no reference given; cited from earlier work
RFX 393 cells [2] = assay: Cell cycle investigation (PI flow cytometry); assay type: cell-based; conditions: GI50 concentration, 48 h; for %S: control 29.33; for %G0–G1: control 57.08
Procedure: RFX 393 cells underwent treatment with pyrazolopyrimidine derivatives 6s and 6t at their GI50 concentrations for 48 h.
RFX 393 cells underwent treatment with compounds 6s and 6t at their respective GI50 concentrations for 48 h. Following treatment, the cells were collected, dispersed in 0.5 mL of PBS, and subjected to centrifugation. They were then preserved in 70% (v/v) ethanol at 4 °C and subsequently rinsed with PBS, treated with RNase, and propidium iodide (PI) was used to stain the cells. Flow cytometric measurements were carried out employing a FACScalibur system (Becton Dickinson, Franklin Lakes, NJ, USA). The distributions of the cell cycle were subsequently calculated with the aid of software from Phoenix Flow Systems and Verity Software House (ModFit LT V6.0).

RFX 393 [3] = assay: In vitro cytotoxicity on renal carcinoma cell line (MTT assay); assay type: cell-based; conditions: renal carcinoma cell line RFX 393, read-out: RFX393 (IC50)
RFX 393 cells [4] = assay: Apoptosis and necrosis investigation (Annexin V/PI flow cytometry); assay type: cell-based; conditions: GI50 concentration, 48 h; for Apoptosis Late: control 0.15, % given in Figure 10 only; for Apoptosis Early: control 0.64, % given in Figure 10 only; for Necrosis: control 1.92, % given in Figure 10 only; for Apoptosis Total: control 2.71, % given in Figure 10 only
Procedure: To assess the influence of compounds 6s and 6t on cell death pathways, RFX 393 cells were subjected to the compounds for 48 h and then stained using Annexin V/PI. […] The comprehensive outcomes are provided in Table 4 and graphically illustrated in Figure 10.
RFX 393 cells underwent treatment with the GI50 concentrations of compounds 6s and 6t for 48 h. Following the treatment, the cells were collected, dispersed in 0.5 mL of PBS, and subjected to centrifugation. They were then preserved in 70% (v/v) ethanol at 4 °C and subsequently rinsed with PBS. The fixed cells were then centrifuged again, resuspended in PBS, centrifuged once more, and stained with PE Annexin V and propidium iodide (PI) according to the manufacturer’s instructions. The samples were subsequently analyzed using flow cytometry with a FACScalibur instrument (Becton Dickinson, Franklin Lakes, NJ, USA). Data on cell cycle distributions were processed with the aid of Phoenix Flow Systems and Verity Software House.

CCRF-CEM = assay: NCI 60 cell line single-dose growth inhibition (SRB); assay type: cell-based, human; conditions: 10 µM; leukemia CCRF-CEM
Procedure: as §1, §2, §3, §4, §5, §6, §7

RPMI-8226 = assay: as above; assay type: cell-based, human; conditions: 10 µM; leukemia RPMI-8226
Procedure: as §1, §2, §3, §4, §5, §6, §7

T2 sequence (P04629 33-796): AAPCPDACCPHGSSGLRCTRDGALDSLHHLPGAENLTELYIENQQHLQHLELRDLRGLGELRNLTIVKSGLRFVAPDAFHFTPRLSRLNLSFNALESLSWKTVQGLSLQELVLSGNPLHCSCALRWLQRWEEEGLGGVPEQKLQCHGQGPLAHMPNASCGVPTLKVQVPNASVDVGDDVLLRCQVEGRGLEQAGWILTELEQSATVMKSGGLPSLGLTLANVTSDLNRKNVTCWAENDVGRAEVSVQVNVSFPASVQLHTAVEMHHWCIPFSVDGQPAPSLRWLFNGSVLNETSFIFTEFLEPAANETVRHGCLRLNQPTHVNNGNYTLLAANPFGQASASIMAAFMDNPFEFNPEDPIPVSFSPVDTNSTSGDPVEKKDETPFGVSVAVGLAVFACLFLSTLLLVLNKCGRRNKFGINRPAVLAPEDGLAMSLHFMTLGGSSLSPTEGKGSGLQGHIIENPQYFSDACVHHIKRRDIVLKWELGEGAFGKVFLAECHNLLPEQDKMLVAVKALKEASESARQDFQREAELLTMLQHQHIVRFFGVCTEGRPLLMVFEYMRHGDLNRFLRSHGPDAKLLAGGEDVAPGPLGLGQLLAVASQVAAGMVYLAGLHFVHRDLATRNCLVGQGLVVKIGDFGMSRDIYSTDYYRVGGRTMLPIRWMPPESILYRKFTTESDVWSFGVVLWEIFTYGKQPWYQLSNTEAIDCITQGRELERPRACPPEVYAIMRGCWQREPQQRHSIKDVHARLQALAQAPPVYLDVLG

CCOC(=O)c1c(Nc2ccccc2)nn2c(-c3ccc(OC)cc3)ccnc12 [6m, Ethyl 7-(4-Methoxyphenyl)-2-(anilinyl)pyrazolo[1,5-a]pyrimidine-3-carboxylate]
IC50 (CDK2/CyclinA2): 1060 ± 90 nM | IC50 (TrkA): 960 ± 40 nM | GI % (RFX 393 [1]): 102.68%

CCOC(=O)c1c(Nc2ccccc2)nn2c(-c3ccc4ccccc4c3)ccnc12 [6r, Ethyl 7-(Naphthalen-2-yl)-2-(anilinyl)pyrazolo[1,5-a]pyrimidine-3-carboxylate]
IC50 (CDK2/CyclinA2): 200 ± 20 nM | IC50 (TrkA): 970 ± 40 nM | GI % (RFX 393 [1]): 81.71%

CCOC(=O)c1c(Nc2ccccc2)nn2c(-c3ccc(Br)cc3)ccnc12 [6p, Ethyl 7-(4-Bromophenyl)-2-(anilinyl)pyrazolo[1,5-a]pyrimidine-3-carboxylate]
IC50 (CDK2/CyclinA2): 660 ± 40 nM | IC50 (TrkA): 1340 ± 80 nM | GI % (NCI-H460): 66.12% | GI % (HOP-92): 71.8% | GI % (RFX 393 [1]): 112.34% | GI % (ACHN): 66.02%

CCOC(=O)c1c(Nc2ccccc2)nn2c(-c3ccc([N+](=O)[O-])cc3)ccnc12 [6q, Ethyl 7-(4-Nitrophenyl)-2-(anilinyl)pyrazolo[1,5-a]pyrimidine-3-carboxylate]
GI % (RFX 393 [1]): 52.08%

COc1ccc(-c2ccnc3c(C#N)c(Nc4ccccc4)nn23)cc1OC [6d, 7-(3,4-Dimethoxyphenyl)-2-(anilinyl)pyrazolo[1,5-a]pyrimidine-3-carbonitrile]
IC50 (CDK2/CyclinA2): 550 ± 40 nM | IC50 (TrkA): 570 ± 20 nM | GI % (RFX 393 [1]): 84.17% | GI % (HOP-62): 100.07%

CCOC(=O)c1c(Nc2ccccc2)nn2c(-c3ccco3)c(C#N)cnc12 [11g, Ethyl 6-Cyano-7-(furan-2-yl)-2-(anilinyl)pyrazolo[1,5-a]pyrimidine-3-carboxylate]
IC50 (CDK2/CyclinA2): 220 ± 20 nM | IC50 (TrkA): 890 ± 30 nM | GI % (SNB-75): 69.53%

CCOC(=O)c1c(Nc2ccccc2)nn2c(-c3ccc(OC)c(OC)c3)ccnc12 [6n, Ethyl 7-(3,4-Dimethoxyphenyl)-2-(anilinyl)pyrazolo[1,5-a]pyrimidine-3-carboxylate]
IC50 (CDK2/CyclinA2): 780 ± 40 nM | IC50 (TrkA): 980 ± 40 nM | GI % (NCI-H460): 52.11% | GI % (HOP-92): 94.73% | inhibition at 10 µM (56 cell lines): 43.9%

O=C(Nc1cnn2ccc(N3CCC[C@@H]3c3cc(F)ccc3F)nc12)N1CC[C@H](O)C1 [Larotrectinib]
IC50 (Trk): 2 nM

CCOC(=O)c1c(Nc2ccccc2)nn2c(-c3cccs3)ccnc12 [6t, Ethyl 2-(Anilinyl)-7-(thiophen-2-yl)pyrazolo[1,5-a]pyrimidine-3-carboxylate]
%S (RFX 393 cells [2]): 15.26% | %G0–G1 (RFX 393 cells [2]): 78.01% | IC50 (CDK2/CyclinA2): 90 ± 10 nM | IC50 (RFX 393 [3]): 19900 ± 670 nM | GI % (RFX 393 [1]): 106.08% | Apoptosis Late (RFX 393 cells [4]): 9.49% | Apoptosis Early (RFX 393 cells [4]): 11.15% | Necrosis (RFX 393 cells [4]): 3.58% | Apoptosis Total (RFX 393 cells [4]): 24.22%

CCOC(=O)c1c(Nc2ccccc2)nn2c(-c3ccccc3)ccnc12 [6k, Ethyl 7-Phenyl-2-(anilinyl)pyrazolo[1,5-a]pyrimidine-3-carboxylate]
IC50 (CDK2/CyclinA2): 1580 ± 130 nM | IC50 (TrkA): 1170 ± 90 nM | GI % (CCRF-CEM): 90.41% | GI % (RPMI-8226): 69.31%

CN[C@@H]1C[C@H]2O[C@@](C)([C@@H]1OC)n1c3ccccc3c3c4c(c5c6ccccc6n2c5c31)C(=O)NC4 [Staurosporine, reference compound]
IC50 (RFX 393 [3]): 70 nM

CCOC(=O)c1c(Nc2ccccc2)nn2c(-c3ccco3)ccnc12 [6s, Ethyl 7-(Furan-2-yl)-2-(anilinyl)pyrazolo[1,5-a]pyrimidine-3-carboxylate]
%S (RFX 393 cells [2]): 11.49% | %G0–G1 (RFX 393 cells [2]): 84.36% | IC50 (RFX 393 [3]): 11700 ± 400 nM | Apoptosis Late (RFX 393 cells [4]): 7.74% | Apoptosis Early (RFX 393 cells [4]): 20.29% | Necrosis (RFX 393 cells [4]): 4.04% | Apoptosis Total (RFX 393 cells [4]): 32.07%

CCOC(=O)c1c(Nc2ccccc2)nn2c(-c3ccc(Cl)cc3)ccnc12 [6o, Ethyl 7-(4-Chlorophenyl)-2-(anilinyl)pyrazolo[1,5-a]pyrimidine-3-carboxylate]
IC50 (CDK2/CyclinA2): 760 ± 40 nM | IC50 (TrkA): 1590 ± 110 nM | GI % (RFX 393 [1]): 110.55% | GI % (CCRF-CEM): 83.85%

N#Cc1c(Nc2ccccc2)nn2c(-c3ccco3)ccnc12 [6i, 7-(Furan-2-yl)-2-(anilinyl)pyrazolo[1,5-a]pyrimidine-3-carbonitrile]
GI % (HOP-92): 68.96%
